Measured values as given in patent US10206937B2, “Boronic acid derivatives and therapeutic uses thereof” (Qpex Biopharma, Inc., priority 2014, dated 2019).

Test system: strains of Enterobacteriaceae producing various carbapenemases (class A, D and B; 104 strains)
Assay: Antibiotics potentiation by Compound 27 (MIC; meropenem, doripenem, ertapenem, cefepime)
Type: cell-based
Conditions: + 27 = with Compound 27 at fixed 4 μg/ml

Measured: MIC

C[C@@H](O)[C@H]1C(=O)N2C(C(=O)O)=C(S[C@@H]3CN[C@H](C(=O)N(C)C)C3)[C@H](C)[C@H]12 [M]
X (MIC of less than 1 μg/mL): strain KP1167 Klebsiella pneumoniae (SHV-12(2be); VIM-1)
Y (MIC of 1 μg/mL to 10 μg/mL): strain KP1082 Klebsiella pneumoniae (KPC-2, SHV-1) | strain KP1083 Klebsiella pneumoniae (KPC-3, SHV-1, TEM-1) | strain KP1088 Klebsiella pneumoniae (KPC-3, SHV-11, TEM-1) | strain KP1089 Klebsiella pneumonias (OXA-181, CTX-M-15, TEM, SHV) | strain KP1095 Klebsiella pneumoniae (KPC-2 TEM-1 SHV-1) | strain KP1096 Klebsiella pneumoniae (KPC-2 TEM-181 SHV-11) | strain KP1172 Klebsiella pneumoniae (SHV-31(2be); DHA-1; VIM-1) | strain KP1173 Klebsiella pneumoniae (TEM-33(2br); CTX-M-15; IMP-1) | strain KP1174 Klebsiella pneumoniae (CTX-M-14; IMP-1) | strain KP1180 Klebsiella pneumoniae (SHV-OSBL(2b), TEM-OSBL(2b); CTX-M-15; DHA-1; IMP-26) | strain KP1181 Klebsiella pneumoniae (SHV-OSBL(2b); CTX-M-15; IMP-26) | strain KP1184 Klebsiella pneumoniae (SHV-OSBL(2b); IMP-1) | strain KPM1202 Klebsiella pneumoniae (KPC SHV TEM) | strain KPM1203 Klebsiella pneumoniae (KPC SHV TEM) | strain KPM1344 Klebsiella pneumoniae (VIM-1) | strain KX1017 Klebsiella oxytoca (KPC-2, OXA-2, SHV-30) | strain KX1018 Klebsiella oxytoca (KPC-2, SHV-40, OXY-1) | strain KX1019 Klebsiella oxytoca (KPC-2, OXA-2) | strain PM1024 Proteus mirabilis (TEM-1(2b); CMY-16; VIM-1)
Z (MIC of greater than 10 μg/mL): strain KP1081 Klebsiella pneumoniae (NDM-1, TEM-1, SHV-11, CMY-6, CTX-M-15) | strain KP1084 Klebsiella pneumoniae (KPC-3, SHV-11, TEM-1) | strain KP1086 Klebsiella pneumoniae (OXA-48, CTX-M-15, TEM, SHV) | strain KP1087 Klebsiella pneumoniae (KPC-2, CTX-M-15, SHV-11, TEM-1) | strain KP1097 Klebsiella pneumonias (IMP-1) | strain KP1098 Klebsiella pneumoniae (IMP-26) | strain KP1104 Klebsiella pneumoniae (KPC TEM) | strain KP1105 Klebsiella pneumoniae (KPC TEM SHV) | strain KP1159 Klebsiella pneumoniae (SHV-1(2b); CTX-M-15; IMP-4) | strain KP1160 Klebsiella pneumoniae (SHV-28(2be); CTX-M-15; IMP-26) | strain KP1161 Klebsiella pneumoniae (NDM-1) | strain KP1164 Klebsiella pneumoniae (SHV-12(2be); VIM-1) | strain KP1165 Klebsiella pneumoniae (SHV-11(2b); CTX-M-15; VIM-27) | strain KP1166 Klebsiella pneumoniae (SHV-5(2be); VIM-26) | strain KP1169 Klebsiella pneumoniae (SHV-11(2b); VIM-1) | strain KP1170 Klebsiella pneumoniae (SHV-11(2b); CTX-M-15; NDM-1) | strain KP1175 Klebsiella pneumoniae (SHV-OSBL(2b); VIM-1) | strain KP1177 Klebsiella pneumoniae (SHV-OSBL(2b), TEM-OSBL(2b); CTX-M-15; NDM-1) | strain KP1178 Klebsiella pneumoniae (SHV-OSBL(2b;) TEM-OSBL(2b); CTX-M-15; NDM-1) | strain KP1179 Klebsiella pneumoniae (SHV-12(2be), TEM-OSBL(2b); CTX-M-15; NDM-7) | strain KP1183 Klebsiella pneumoniae (SHV-OSBL(2b), TEM-OSBL(2b); CTX-M-15; NDM-1) | strain KP1185 Klebsiella pneumoniae (SHV-OSBL(2b), TEM-OSBL(2b); IMP-4) | strain KP1186 Klebsiella pneumoniae (CTX-M-15; NDM-1) | strain KP1187 Klebsiella pneumoniae (SHV-55(2be), TEM-OSBL(2b); CTX-M-15; NDM-1) | strain KP1188 Klebsiella pneumoniae (SHV-OSBL(2b); CTX-M-15; NDM-1) | strain KP1189 Klebsiella pneumoniae (TEM-OSBL(2b); CTX-M-15; CTX-M-27; NDM-1) | strain KPM1123 Klebsiella pneumoniae (KPC-2 TEM SHV) | strain KPM1345 Klebsiella pneumoniae (VIM-1 SHV) | strain KPM1347 Klebsiella pneumoniae (NDM-1 SHV CTX-M-15) | strain PM1026 Proteus mirabilis (DHA-1; IMP-26) | strain PM1027 Proteus mirabilis (VIM-5) | strain SM1023 Serratia marcescens (VIM-4)
